# Experiments:
# [1] = tested on: SK-MEL-2 cells; test: Wound healing assay; type: cell-based, human; settings: for scratch coverage in wound healing assay: two days; for wound closure: 2.5 μM, day 3 or 4, p≤0.01
# Procedure: (§1) For the wound-healing assay, melanoma cells were seeded into 35 mm dishes in 6-well-plates. After the cells had reached 100% confluency, the wound-healing assay was performed with a sterile pipette tip (1-10 μL pipette tip) by making a scratch through the confluent monolayer. Subsequently, the cells were washed with DPBS and fresh medium (EMEM) was added to each well and the desired amount of inhibitor was added in order to achieve the final concentrations of 50 nM, 100 nM, 200 nM, 500 nM and 1 μM against the control. Cells were cultured for 48 h. In 24 hours intervals, pictures of wound closure were taken and the percentage of wound closure was calculated in three randomly chosen fields.
# The scratch was even clearer after two days in 1 μM sample compared to 200 nM sample. Also the number of dead cells floating was highest in 1 μM, followed by 200 nM; whereas, floating cells were rarely observed in the control samples.
# A wound healing assay was performed to investigate the effect of ACPD and DNDA on malignant melanoma cell migration in vitro. Wound healing assay is commonly used to investigate in vitro migration of cancer cells. For the wound-healing assay, melanoma cells were seeded into 35 mm dishes in 6-well-plates. After the cells had reached 100% confluency, the wound-healing assay was performed with a sterile pipette tip (1-10 μL pipette tip) by making a scratch through the confluent monolayer. Subsequently, the cells were washed with DPBS and fresh medium (EMEM) was added to each well and the desired amount of inhibitor was added. Each well was subsequently incubated with sterile water or desired amount of ICA-1, ACPD, DNDA, or c-Stat to achieve the final concentration of the half maximal inhibitory concentration (IC50) for each inhibitor. Plates were incubated at 37 ° C. and 5% CO2 and photographs of wound closure were taken utilizing a Motic AE31E microscope (40× magnification). The percentage of wound closure was calculated after 3 or 4 days.
# In one set of experiments, cells were cultured for 48 h. In 24 hours intervals, pictures of wound closure were taken and the percentage of wound closure was calculated in three randomly chosen fields. […] In each figure, cells treated with ACPD 2.5 μM and DNDA 2.5 μM were compared with their respective controls. The areas of the scratch (wound) were calculated and compared to determine the statistical significance (FIG. 8C).
# [2] = tested on: MeWo cells; test: Wound healing assay; type: cell-based, human; settings: 2.5 μM, day 3 or 4, p≤0.01
# Procedure: as §1
# A wound healing assay was performed to investigate the effect of ACPD and DNDA on malignant melanoma cell migration in vitro. Wound healing assay is commonly used to investigate in vitro migration of cancer cells. For the wound-healing assay, melanoma cells were seeded into 35 mm dishes in 6-well-plates. […] The percentage of wound closure was calculated after 3 or 4 days.
# In one set of experiments, cells were cultured for 48 h. In 24 hours intervals, pictures of wound closure were taken and the percentage of wound closure was calculated in three randomly chosen fields. […] The areas of the scratch (wound) were calculated and compared to determine the statistical significance (FIG. 8C).
# [3] = molecular target: T1, PKM-ζ (Homo sapiens, UniProt Q05513); test: PKC activity assay (phosphorylation of myelin basic protein); type: biochemical
# T1 construct: proteolytic cleavage of N-regulatory domain and the C-terminal catalytic domain of PKC-ζ
# T1 sequence (Q05513 1-409 isoform Q05513-2): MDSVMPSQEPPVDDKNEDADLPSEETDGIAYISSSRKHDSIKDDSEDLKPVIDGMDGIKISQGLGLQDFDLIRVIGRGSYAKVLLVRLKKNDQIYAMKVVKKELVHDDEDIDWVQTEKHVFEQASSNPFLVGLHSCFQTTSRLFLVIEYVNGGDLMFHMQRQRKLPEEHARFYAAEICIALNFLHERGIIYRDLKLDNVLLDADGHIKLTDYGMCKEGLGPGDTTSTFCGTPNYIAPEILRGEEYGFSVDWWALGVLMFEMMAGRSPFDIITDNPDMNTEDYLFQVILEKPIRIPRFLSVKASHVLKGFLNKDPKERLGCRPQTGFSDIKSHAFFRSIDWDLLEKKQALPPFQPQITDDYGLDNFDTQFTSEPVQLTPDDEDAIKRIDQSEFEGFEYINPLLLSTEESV
# Procedure: (§2) PKC activity assay was conducted by monitoring the phosphorylation of myelin basic protein (MBP), a known substrate for PKCs. The detailed procedure was performed as described in Ling, D. S. F. et al. (2002) for PKC-ι and PKM-ζ [37].
# (§3) PKC activity assay was performed by suspending 0.5 μg of PKC-ζ and PKC-ι separately in 200 μL of PKC kinase buffer to test the ability of PKC-ζ and PKC-ι of phosphorylating and immunoprecipitating HSF-1 of the SK-MEL-2 cells and PCS-200-013 cells. The PKC kinase buffer composition was 20 mM Tris-HCL (pH of 7.5), 6 mM Magnesium acetate, phosphotidylserine ([…], 20 μL of 10 mg/mL solution), ATP (0.0045 mg/mL) and also the desired inhibitors, wherever appropriate (ICA-1, ACPD, DNDA and ζ-Stat). The inhibitor was used in two different concentrations as 1 μM and 0.5 μM. The reaction was terminated after incubation for 5 minutes at 30° C. by addition of sample loading buffer. Samples were then separated by PAGE and immunoblotted against anti-PKC antibodies (either PKC-ι or PKC-ζ) and against phosphospecific HSF-1 antibodies. Samples were also probed against anti-HSF-1 antibody to determine that the protein immunoprecipitaed was HSF-1. The signal was visualized using enhanced chemiluminescence.
# (§4) The activity of DNDA (FIG. 2) was determined for a series of concentrations (0-20 μM) using recombinant active PKC-ι or PKM-ζ in the presence of MBP (5 μg). The maximum inhibition of PKC-ζ was 40% and reached at 2 (P≤0.05). Inhibition remained the same upon increasing the concentration PKM-ζ is an active form of PKC-ζ found in human brain due to proteolytic cleavage of N-regulatory domain and the C-terminal catalytic domain of PKC-ζ [27-29].
# [4] = molecular target: T2, recombinant active PKC-ι (Homo sapiens, UniProt P41743); test: as above; type: biochemical
# T2 sequence (P41743 1-596): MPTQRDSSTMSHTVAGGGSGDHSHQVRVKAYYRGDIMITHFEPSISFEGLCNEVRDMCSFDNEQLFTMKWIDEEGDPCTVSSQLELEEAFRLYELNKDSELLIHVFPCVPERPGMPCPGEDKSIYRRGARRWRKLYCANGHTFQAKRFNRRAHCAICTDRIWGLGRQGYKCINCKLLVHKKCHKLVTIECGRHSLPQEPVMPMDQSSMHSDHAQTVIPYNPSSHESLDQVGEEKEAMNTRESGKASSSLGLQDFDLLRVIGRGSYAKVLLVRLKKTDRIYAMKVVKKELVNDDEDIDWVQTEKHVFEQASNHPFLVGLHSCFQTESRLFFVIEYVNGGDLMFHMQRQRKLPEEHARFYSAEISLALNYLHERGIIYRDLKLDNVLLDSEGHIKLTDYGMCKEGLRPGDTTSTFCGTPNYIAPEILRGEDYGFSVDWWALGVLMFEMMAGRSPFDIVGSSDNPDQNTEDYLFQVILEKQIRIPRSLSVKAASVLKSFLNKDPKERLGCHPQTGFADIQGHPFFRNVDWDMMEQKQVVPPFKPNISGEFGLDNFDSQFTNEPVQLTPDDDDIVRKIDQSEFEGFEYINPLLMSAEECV
# Procedure: as §2, §3, §4
compound,measurement,setting,value
"CC(=O)C1=C(O)CCC1=O [ACPD, 2-acetyl-1,3-cyclopentanedione]",scratch coverage in wound healing assay,[1]; 200 nM,not completely covered
same,scratch coverage in wound healing assay,[1]; 1 μM,not completely covered
same,wound closure,[1],significantly reduce the wound closure
same,wound closure,[2],significantly reduce the wound closure
"Nc1c(S(=O)(=O)O)cc2cc(S(=O)(=O)O)ccc2c1N [DNDA, 3,4-diamino-2,7-naphthalenedisulfonic acid]",maximum inhibition of PKC-ζ,"[3]; reached at 2 (unit not given), series 0-20 μM, MBP 5 μg",40%
same,inhibition at 0.5 µM,"[4]; reached at 0.5 μM, series 0-20 μM, MBP 5 μg, read-out: maximum inhibition of PKC-ι",~15%
same,wound closure,[1],significantly reduce the wound closure
same,wound closure,[2],significantly reduce the wound closure
"O=S(=O)(O)c1cc(O)c2c(S(=O)(=O)O)cc(S(=O)(=O)O)cc2c1 [ζ-Stat, 8-hydroxy-1,3,6-naphthalenetrisulfonic acid]",inhibition of PKM-ζ activity,[3]; kinase activity assay,more than 50%
same,effect on PKC-ι in kinase activity assay,[4],does not effect
